# Experimental data taken from ChEMBL document CHEMBL1147491, “Complestatin synthetic studies; the effect of the amino acid configuration on peptide backbone conformation in the common western BCD macrocycle” (Bioorg Med Chem Lett, 2004).
# Legend:
# Design in all cases: species or system Homo sapiens
# [1] = Compound required to inhibit binding of CD4 to gp120 at 100 uM concentration; No inhibition
# [2] = Compound required to inhibit binding of CD4 to gp120 in the absence of bovine serum albumin(BSA)
# [3] = Compound required to inhibit binding of CD4 to gp120 in the presence of bovine serum albumin(BSA)
SMILES,IC50 [1],IC50 [2],IC50 [3]
CN[C@H](CC(C)C)C(=O)N[C@H]1C(=O)N[C@@H](CC(N)=O)C(=O)N[C@H]2C(=O)N[C@H]3C(=O)N[C@H](C(=O)N[C@H](C(=O)O)c4cc(O)cc(O)c4-c4cc3ccc4O)[C@H](O)c3ccc(c(Cl)c3)Oc3cc2cc(c3O[C@@H]2O[C@H](CO)[C@@H](O)[C@H](O)[C@H]2O[C@H]2C[C@](C)(N)[C@H](O)[C@H](C)O2)Oc2ccc(cc2Cl)[C@H]1O [VANCOMYCIN],No inhibition,,
CN1C(=O)[C@@H](c2cc(Cl)c(O)c(Cl)c2)NC(=O)[C@@H]2NC(=O)[C@@H](c3cc(Cl)c(O)c(Cl)c3)NC(=O)[C@H](NC(=O)C(=O)c3cc(Cl)c(O)c(Cl)c3)Cc3c[nH]c4c(cccc34)-c3cc2cc(c3O)Oc2ccc(cc2)C[C@H]1C(=O)N[C@@H](C(=O)O)c1ccc(O)cc1 [CHLOROPEPTIN],,32 µM,2 µM
